1 compound from article PMC10764104, “Discovery of Molecular Glue Degraders via Isogenic Morphological Profiling” (ACS Chemical Biology, 2023) can be followed below.

This assay concerns RKO WT. Description: Quantitative expression proteomics to identify degradation targets. The format is cell-based, human. Conditions: 10 μM, 16 h, n = 2, and adjusted p < 0.01, over 8000 proteins quantified. The text has this: We selected FL2-14 for target elucidation (circled in black in Figure 2E) based on three criteria (Table S4). First, FL2-14 has low cosine similarity with all of the CRBN-dependent controls (i.e., no thick blue edges). […] Third, it has a unique chemical structure, being the only CRBN binder with the tail group modification 14 predicted to have CRBN-dependent bioactivity (Figure 3A). To elucidate the target for FL2-14, we performed quantitative proteomics to evaluate changes in protein abundances upon treatment with FL2-14. […]
Figure 3 FL2-14 is a selective GSPT2 molecular glue degrader. […] (B) DMSO-normalized quantitative proteomics after 16 h of treatment with FL2-14 (10 μM) in RKO WT (n = 2). […]
of the sample sizes of (i.e. number of images in) RKO CRBN OE and RKO CRBN KO data. We, thus, normalized the U scores calculated to allow us to compare U scores for different treatments with varying sample sizes: […]
Comparing the treatment‐centric features of compounds predicted to have CRBN‐dependent bioactivity. […] We then retrieve the matrix of Kendall’s τ‐b correlation coefficients calculated per feature for each compound. […]
We then visualized the cosine similarities calculated on a network graph with NetworkX (https://networkx.org, version 3.1), using the spring_layout() with seed set to 500 and iterations set to 200. […]

Turning to `CN(Cc1ncc(C2CC2)o1)S(=O)(=O)Oc1ccc(Nc2ccc3c(c2)C(=O)N(C2CCC(=O)NC2=O)C3=O)cc1` (stereo not shown) [FL2-14], the “proteins significantly downregulated (quantitative proteomics)” value is “GSPT2, FAM83F, and ZBTB39”.
